Literature values, collected in patent publication US20200061085A1, “COMPOSITION FOR TREATMENT, INHIBITION AND ATTENUATION OF MELANOMA VIRUS AND PREVENTION OF SKIN CANCERS” (priority 2018, published 2020).

Conditions: STS given exogenously, 90 years of cumulative uses (renal, cyanide, eclampsia)

## sodium thiosulfate [STS]
  fatalities: no fatalities
